The record followed here is ChEMBL document CHEMBL5696441 (Nat Chem Biol, 2011).

The target of test [1] is Tyrosine-protein kinase ZAP-70 (Homo sapiens) (UniProt P43403). Nature of the test: Inhibition of ZAP70 (unknown origin) assessed as remaining activity at 1 uM by Kinome scan method relative to control.
Test [2] deals with Serine/threonine-protein kinase N2 (Homo sapiens) (UniProt Q16513). The experiment in a line: Inhibition of human PRK2 assessed as residual activity at 1 uM using RBER-CHKtide as substrate in presence of 33P-ATP by ProQinase assay relative to control.
The target of test [3] is Mitogen-activated protein kinase 10 (Homo sapiens) (UniProt P53779). The experiment in a line: Inhibition of JNK3 (unknown origin) assessed as remaining activity at 1 uM by Kinome scan method relative to control.
Sequence of Mitogen-activated protein kinase 10 (Homo sapiens) (P53779 whole entry): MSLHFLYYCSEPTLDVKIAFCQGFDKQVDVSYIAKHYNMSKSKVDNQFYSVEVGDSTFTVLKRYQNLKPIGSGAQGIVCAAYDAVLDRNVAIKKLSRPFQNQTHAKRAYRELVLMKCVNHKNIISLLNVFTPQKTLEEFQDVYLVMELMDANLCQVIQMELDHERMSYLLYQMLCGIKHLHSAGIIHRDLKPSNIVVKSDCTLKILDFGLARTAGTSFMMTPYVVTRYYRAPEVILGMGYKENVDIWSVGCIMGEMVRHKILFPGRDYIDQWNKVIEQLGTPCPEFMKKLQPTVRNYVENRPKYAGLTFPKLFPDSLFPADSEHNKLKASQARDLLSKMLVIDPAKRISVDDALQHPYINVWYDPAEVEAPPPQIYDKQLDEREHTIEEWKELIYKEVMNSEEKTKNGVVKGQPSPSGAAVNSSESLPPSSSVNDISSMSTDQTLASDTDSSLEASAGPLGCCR
Test [4] deals with Serine/threonine-protein kinase Nek7 (Homo sapiens) (UniProt Q8TDX7). The experiment in a line: Inhibition of NEK7 (unknown origin) assessed as remaining activity at 1 uM by Kinome scan method relative to control.
Test [5] concerns the target Serine/threonine-protein kinase 33 (Homo sapiens) (UniProt Q9BYT3). The experiment in a line: Inhibition of human STK33 assessed as residual activity at 1 uM using RBER-CHKtide as substrate in presence of 33P-ATP by ProQinase assay relative to control.
Test [6] has as its target Protein kinase C delta type (Homo sapiens) (UniProt Q05655). The experiment in a line: Inhibition of human PKCdelta assessed as residual activity at 1 uM using 3xChocktide-PKC(19-31) as substrate in presence of 33P-ATP by ProQinase assay relative to control.
In test [7] the target is SRSF protein kinase 2 (Homo sapiens) (UniProt P78362). The experiment in a line: Inhibition of human SRPK2 assessed as residual activity at 1 uM using MBP as substrate in presence of 33P-ATP by ProQinase assay relative to control.
The target in test [8] is Cyclin-dependent kinase 8 (Homo sapiens) (UniProt P49336). Nature of the test: Inhibition of CDK8 (unknown origin) assessed as remaining activity at 1 uM by Kinome scan method relative to control.
Sequence of Cyclin-dependent kinase 8 (Homo sapiens) (P49336 whole entry): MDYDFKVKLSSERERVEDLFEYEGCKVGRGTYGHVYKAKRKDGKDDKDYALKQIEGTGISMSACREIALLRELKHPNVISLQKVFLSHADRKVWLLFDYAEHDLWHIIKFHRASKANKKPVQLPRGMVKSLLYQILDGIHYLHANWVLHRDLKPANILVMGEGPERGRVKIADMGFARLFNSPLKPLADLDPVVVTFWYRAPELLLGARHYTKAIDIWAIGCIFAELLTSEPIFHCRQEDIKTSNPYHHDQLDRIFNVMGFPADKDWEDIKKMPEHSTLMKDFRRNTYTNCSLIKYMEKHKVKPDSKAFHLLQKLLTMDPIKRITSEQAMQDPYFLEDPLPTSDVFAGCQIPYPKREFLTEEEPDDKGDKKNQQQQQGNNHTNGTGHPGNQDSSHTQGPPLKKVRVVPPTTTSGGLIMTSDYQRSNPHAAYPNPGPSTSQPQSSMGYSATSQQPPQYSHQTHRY
The target in test [9] is Mitogen-activated protein kinase kinase kinase 2 (Homo sapiens) (UniProt Q9Y2U5). The experiment in a line: Inhibition of human MEKK2 assessed as residual activity at 1 uM using casein as substrate in presence of 33P-ATP by ProQinase assay relative to control.
Test [10] concerns the target Serine/threonine-protein kinase RIO3 (Homo sapiens) (UniProt O14730). Nature of the test: Inhibition of RIOK3 (unknown origin) assessed as remaining activity at 1 uM by Kinome scan method relative to control.
The target of test [11] is Casein kinase I isoform gamma-2 (Homo sapiens) (UniProt P78368). The experiment in a line: Inhibition of CSNK1G2 (unknown origin) assessed as remaining activity at 1 uM by Kinome scan method relative to control.
Sequence of Casein kinase I isoform gamma-2 (Homo sapiens) (P78368 whole entry, looked up, canonical isoform): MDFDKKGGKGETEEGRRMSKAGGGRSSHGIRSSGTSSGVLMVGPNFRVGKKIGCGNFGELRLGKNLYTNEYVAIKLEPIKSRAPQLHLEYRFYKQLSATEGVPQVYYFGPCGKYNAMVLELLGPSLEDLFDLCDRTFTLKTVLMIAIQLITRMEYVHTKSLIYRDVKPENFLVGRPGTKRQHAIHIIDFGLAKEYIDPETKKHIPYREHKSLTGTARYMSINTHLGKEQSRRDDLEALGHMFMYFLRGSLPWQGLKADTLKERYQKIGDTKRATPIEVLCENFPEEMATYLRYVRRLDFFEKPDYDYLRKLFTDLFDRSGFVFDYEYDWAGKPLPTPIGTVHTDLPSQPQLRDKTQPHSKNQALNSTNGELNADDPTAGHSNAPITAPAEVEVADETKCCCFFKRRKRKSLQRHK
The target in test [12] is Ephrin type-B receptor 3 (Homo sapiens) (UniProt P54753). Nature of the test: Inhibition of EPHB3 (unknown origin) assessed as remaining activity at 1 uM by Kinome scan method relative to control.
Sequence of Ephrin type-B receptor 3 (Homo sapiens) (P54753 whole entry): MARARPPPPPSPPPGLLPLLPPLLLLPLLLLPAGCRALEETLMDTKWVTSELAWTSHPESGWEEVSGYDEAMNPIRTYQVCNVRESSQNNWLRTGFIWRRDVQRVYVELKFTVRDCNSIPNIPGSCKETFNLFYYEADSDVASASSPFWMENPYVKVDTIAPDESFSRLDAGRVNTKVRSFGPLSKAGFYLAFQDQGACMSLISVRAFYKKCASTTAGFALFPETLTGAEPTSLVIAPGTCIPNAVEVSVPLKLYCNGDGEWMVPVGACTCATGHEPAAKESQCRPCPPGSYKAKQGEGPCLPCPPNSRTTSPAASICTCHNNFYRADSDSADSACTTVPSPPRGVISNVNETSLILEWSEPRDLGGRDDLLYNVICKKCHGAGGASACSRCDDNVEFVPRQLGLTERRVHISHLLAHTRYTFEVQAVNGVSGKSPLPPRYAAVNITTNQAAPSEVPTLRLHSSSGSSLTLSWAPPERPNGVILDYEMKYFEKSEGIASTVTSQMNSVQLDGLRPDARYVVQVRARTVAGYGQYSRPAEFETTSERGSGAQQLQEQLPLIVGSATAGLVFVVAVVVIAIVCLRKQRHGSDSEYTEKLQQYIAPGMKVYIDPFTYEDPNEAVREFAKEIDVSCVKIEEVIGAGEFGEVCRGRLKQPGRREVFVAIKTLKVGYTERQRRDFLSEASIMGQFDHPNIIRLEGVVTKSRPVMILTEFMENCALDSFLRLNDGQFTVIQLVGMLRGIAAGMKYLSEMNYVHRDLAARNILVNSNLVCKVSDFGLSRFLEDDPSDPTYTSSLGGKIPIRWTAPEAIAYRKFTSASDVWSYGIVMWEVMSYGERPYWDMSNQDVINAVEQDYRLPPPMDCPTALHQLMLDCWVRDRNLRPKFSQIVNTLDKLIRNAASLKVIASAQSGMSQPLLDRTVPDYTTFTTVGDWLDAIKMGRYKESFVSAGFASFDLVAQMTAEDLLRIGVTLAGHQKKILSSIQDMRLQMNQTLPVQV
For test [13], the target named is Serine/threonine-protein kinase Nek6 (Homo sapiens) (UniProt Q9HC98). The experiment in a line: Inhibition of human NEK6 assessed as residual activity at 1 uM using RBER-GSK3 as substrate in presence of 33P-ATP by ProQinase assay relative to control.
The target of test [14] is Ephrin type-A receptor 7 (Homo sapiens) (UniProt Q15375). The experiment in a line: Inhibition of EPHA7 (unknown origin) assessed as remaining activity at 1 uM by Kinome scan method relative to control.
Sequence of Ephrin type-A receptor 7 (Homo sapiens) (Q15375 28-998 limits assumed): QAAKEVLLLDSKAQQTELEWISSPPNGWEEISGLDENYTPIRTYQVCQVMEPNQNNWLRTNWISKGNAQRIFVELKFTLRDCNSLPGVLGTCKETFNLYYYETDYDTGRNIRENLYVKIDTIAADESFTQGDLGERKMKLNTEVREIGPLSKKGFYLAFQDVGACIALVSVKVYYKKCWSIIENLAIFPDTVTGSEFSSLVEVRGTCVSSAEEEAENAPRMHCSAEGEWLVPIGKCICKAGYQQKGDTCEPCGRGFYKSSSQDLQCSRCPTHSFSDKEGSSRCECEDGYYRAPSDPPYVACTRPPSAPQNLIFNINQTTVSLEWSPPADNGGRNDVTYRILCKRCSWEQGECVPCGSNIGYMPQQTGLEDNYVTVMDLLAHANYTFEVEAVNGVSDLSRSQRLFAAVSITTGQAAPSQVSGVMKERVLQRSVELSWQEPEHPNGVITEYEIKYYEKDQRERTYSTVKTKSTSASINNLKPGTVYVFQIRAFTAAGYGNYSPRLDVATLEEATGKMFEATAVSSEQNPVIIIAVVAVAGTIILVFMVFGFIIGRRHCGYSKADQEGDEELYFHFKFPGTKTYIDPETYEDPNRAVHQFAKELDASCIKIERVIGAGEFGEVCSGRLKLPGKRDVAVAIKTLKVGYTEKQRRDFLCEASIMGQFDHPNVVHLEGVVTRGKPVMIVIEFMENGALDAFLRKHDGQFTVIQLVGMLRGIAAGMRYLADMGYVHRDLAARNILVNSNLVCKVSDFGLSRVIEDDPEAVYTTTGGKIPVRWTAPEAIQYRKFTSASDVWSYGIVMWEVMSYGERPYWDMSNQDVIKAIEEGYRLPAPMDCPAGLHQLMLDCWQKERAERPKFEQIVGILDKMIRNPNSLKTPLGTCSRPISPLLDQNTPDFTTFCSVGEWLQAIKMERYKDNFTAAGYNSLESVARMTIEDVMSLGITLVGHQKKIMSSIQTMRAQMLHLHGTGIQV
Test [15] addresses Serine/threonine-protein kinase 4 (Homo sapiens) (UniProt Q13043). The experiment in a line: Inhibition of human MST1 assessed as residual activity at 1 uM using RB-CTF as substrate in presence of 33P-ATP by ProQinase assay relative to control.
Test [16] has as its target Casein kinase II subunit alpha' (Homo sapiens) (UniProt P19784). Nature of the test: Inhibition of CSNK2A2 (unknown origin) assessed as remaining activity at 1 uM by Kinome scan method relative to control.
In test [17] the test system is Receptor-type tyrosine-protein kinase FLT3 (Homo sapiens), P36888 [D835H]. The experiment in a line: Inhibition of FLT3 D835H mutant (unknown origin) assessed as remaining activity at 1 uM by Kinome scan method relative to control.
The target in test [18] is Tyrosine-protein kinase Yes (Homo sapiens) (UniProt P07947). Nature of the test: Inhibition of YES (unknown origin) assessed as remaining activity at 1 uM by Kinome scan method relative to control.
Sequence of Tyrosine-protein kinase Yes (Homo sapiens) (P07947 2-543 limits assumed): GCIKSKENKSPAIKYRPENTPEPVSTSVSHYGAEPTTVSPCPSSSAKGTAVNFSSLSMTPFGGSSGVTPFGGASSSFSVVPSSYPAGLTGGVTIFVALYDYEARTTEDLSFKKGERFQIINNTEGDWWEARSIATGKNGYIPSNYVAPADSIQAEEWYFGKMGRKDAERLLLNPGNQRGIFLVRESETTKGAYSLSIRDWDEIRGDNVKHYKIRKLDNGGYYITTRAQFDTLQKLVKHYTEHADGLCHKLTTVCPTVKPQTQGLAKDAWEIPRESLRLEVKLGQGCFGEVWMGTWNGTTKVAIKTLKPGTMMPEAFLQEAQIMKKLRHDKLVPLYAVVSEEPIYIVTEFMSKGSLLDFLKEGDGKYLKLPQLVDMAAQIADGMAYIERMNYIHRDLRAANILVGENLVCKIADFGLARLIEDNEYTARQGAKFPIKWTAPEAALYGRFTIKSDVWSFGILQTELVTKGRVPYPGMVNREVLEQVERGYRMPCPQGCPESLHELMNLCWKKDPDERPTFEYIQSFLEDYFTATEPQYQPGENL
Test [19] concerns the target Serine/threonine-protein kinase 3 (Homo sapiens) (UniProt Q13188). Nature of the test: Inhibition of human MST2 assessed as residual activity at 1 uM using RB-CTF as substrate in presence of 33P-ATP by ProQinase assay relative to control.
Test [20] deals with Receptor-type tyrosine-protein kinase FLT3 (Homo sapiens), P36888 [UNDEFINED MUTATION]. The experiment in a line: Inhibition of human […] mutant assessed as residual activity at 1 uM using Poly(Ala,Glu,Lys,Tyr)6:2:5:1 as substrate in presence of 33P-ATP by ProQinase assay relative to control.
For test [21], the target named is T1, Serine/threonine-protein kinase D1 (Homo sapiens) (UniProt Q15139).
T1 sequence (whole entry): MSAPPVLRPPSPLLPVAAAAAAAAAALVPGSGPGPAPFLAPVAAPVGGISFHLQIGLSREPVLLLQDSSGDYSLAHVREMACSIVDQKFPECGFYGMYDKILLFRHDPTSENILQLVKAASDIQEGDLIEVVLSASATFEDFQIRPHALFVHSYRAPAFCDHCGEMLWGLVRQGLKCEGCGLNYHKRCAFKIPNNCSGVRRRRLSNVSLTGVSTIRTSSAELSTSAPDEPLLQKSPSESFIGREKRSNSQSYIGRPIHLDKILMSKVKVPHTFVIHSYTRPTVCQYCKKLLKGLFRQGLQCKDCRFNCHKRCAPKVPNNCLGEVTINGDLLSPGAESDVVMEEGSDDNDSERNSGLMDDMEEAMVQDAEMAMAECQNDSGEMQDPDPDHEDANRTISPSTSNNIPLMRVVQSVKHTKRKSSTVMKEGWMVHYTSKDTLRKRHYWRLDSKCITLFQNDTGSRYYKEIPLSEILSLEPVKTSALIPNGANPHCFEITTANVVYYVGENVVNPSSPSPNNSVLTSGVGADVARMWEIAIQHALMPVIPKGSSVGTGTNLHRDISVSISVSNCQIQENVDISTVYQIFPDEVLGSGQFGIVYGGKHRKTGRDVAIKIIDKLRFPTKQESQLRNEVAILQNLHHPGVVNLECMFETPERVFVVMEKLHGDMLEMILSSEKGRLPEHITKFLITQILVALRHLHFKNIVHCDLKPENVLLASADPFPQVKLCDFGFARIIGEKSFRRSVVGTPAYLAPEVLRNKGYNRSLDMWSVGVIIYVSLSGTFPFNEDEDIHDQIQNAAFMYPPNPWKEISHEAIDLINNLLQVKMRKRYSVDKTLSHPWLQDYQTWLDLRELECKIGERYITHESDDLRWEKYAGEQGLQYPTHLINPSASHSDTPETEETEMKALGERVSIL
Nature of the test: Inhibition of human PKCmu assessed as residual activity at 1 uM using RBER-CHKtide as substrate in presence of 33P-ATP by ProQinase assay relative to control.

The structures appear in SMILES notation.

Sequence of Serine/threonine-protein kinase RIO3 (Homo sapiens) (O14730 whole entry, canonical isoform): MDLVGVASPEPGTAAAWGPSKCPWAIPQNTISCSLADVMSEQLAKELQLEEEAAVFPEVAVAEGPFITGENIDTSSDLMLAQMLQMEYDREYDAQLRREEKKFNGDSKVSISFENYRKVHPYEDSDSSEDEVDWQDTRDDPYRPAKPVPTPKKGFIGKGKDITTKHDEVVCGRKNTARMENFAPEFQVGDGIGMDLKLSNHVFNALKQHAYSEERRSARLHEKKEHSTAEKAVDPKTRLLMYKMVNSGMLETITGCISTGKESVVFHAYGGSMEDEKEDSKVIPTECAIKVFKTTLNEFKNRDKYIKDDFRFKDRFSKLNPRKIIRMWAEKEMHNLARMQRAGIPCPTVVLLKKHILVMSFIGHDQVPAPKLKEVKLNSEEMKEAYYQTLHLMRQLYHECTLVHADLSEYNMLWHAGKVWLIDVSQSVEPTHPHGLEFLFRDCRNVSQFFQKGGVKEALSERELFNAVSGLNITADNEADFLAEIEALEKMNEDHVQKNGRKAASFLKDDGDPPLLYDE
Sequence of Serine/threonine-protein kinase 4 (Homo sapiens) (Q13043 whole entry): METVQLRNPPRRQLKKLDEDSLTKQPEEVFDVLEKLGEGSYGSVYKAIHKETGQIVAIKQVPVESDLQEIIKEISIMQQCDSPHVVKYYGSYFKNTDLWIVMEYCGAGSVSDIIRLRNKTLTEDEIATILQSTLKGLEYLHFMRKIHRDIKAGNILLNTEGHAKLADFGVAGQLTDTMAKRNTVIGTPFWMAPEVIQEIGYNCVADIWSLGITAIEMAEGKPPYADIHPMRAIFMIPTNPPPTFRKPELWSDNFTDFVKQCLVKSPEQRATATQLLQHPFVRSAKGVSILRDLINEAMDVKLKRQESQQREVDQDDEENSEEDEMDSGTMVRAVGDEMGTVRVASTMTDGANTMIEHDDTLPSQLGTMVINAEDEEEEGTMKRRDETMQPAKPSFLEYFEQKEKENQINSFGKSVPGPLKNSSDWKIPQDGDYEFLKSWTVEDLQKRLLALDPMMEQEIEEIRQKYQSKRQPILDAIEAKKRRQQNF

On to `O=C1c2ccc(Nc3ccc(F)cc3F)cc2CCc2ccc(OC[C@H](O)CO)cc21` [Skepinone-L], for which the Activity in [1] came to 100%; in [2], 95%; in test [3], 61%; in [4], 96%; in test [5], 94%; in [6], 104%. Further, the Activity is 101% in test [7]; 100% in [8]; 89% in test [9]; 99% in [10]; 100% in test [11]; 100% in test [12]. Moreover, the Activity in test [13] was determined as 97%; in test [14], 89%; in test [15], 71%; in test [16], 100%; in test [17], 88%; in test [18], 97%. The Activity is 83% in [19], 101% in test [20] and 92% in test [21].
